Reference: the supplement of paper PMC4862054
“And” between values parts separate entries of the source, which are not always exact repeats. Equal entries are not always repeated.

Tests used:
Test in all cases: normalised viability (% of control), CellTiter-Blue; higher = more viable cells (about 100 = DMSO control)
Conditions in all cases: incubation time: 72 h
[1] = test system: CAL-51
Procedure: (§1)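 DSRT, CellTiter-Blue viability, 72 h incubation. Signal is normalised to DMSO and benzethonium chloride controls. Value is the normalised response at dose 6.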

[2] = test system: CAL-148
Procedure: as §1

[3] = test system: CAL-85-1
Procedure: as §1

[4] = test system: DU-4475
Procedure: as §1

[5] = test system: MDA-MB-453
Procedure: as §1

[6] = test system: HDQ-P1
Procedure: as §1

[7] = test system: CAL-51; remark: listed apart in the source
Procedure: (§2)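 DSRT, CellTiter-Blue viability, 72 h incubation. Signal is normalised to DMSO and benzethonium chloride controls. Value is the normalised response at dose 7.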

[8] = test system: CAL-148; remark: listed apart in the source
Procedure: as §2

[9] = test system: CAL-85-1; remark: listed apart in the source
Procedure: as §2

[10] = test system: DU-4475; remark: listed apart in the source
Procedure: as §2

[11] = test system: MDA-MB-453; remark: listed apart in the source
Procedure: as §2

[12] = test system: HDQ-P1; remark: listed apart in the source
Procedure: as §2

Compound | normalised viability [1] | normalised viability [2] | normalised viability [3] | normalised viability [4] | normalised viability [5] | normalised viability [6] | normalised viability [7] [%] | normalised viability [8] [%] | normalised viability [9] [%] | normalised viability [10] [%] | normalised viability [11] [%] | normalised viability [12] [%]
CC(C)C[C@H](NC(=O)[C@H](CCc1ccccc1)NC(=O)CN1CCOCC1)C(=O)N[C@@H](Cc1ccccc1)C(=O)N[C@@H](CC(C)C)C(=O)[C@@]1(C)CO1 [Carfilzomib] (30 nM) | 32.1% | 40.8% | 9.23% | 8.97% | 19.8% | 1.01% | – | – | – | – | – | –
CCN(CC)CCOc1ccc(C(=C(Cl)c2ccccc2)c2ccccc2)cc1 [Clomifene] (300 nM) | 91.6% | 99.2% | 102% | 90.6% | 93.9% | 105% | – | – | – | – | – | –
O=C(c1cc(Cc2n[nH]c(=O)c3ccccc23)ccc1F)N1CCN(C(=O)C2CC2)CC1 [Olaparib] (300 nM) | 93.2% | 85.3% | 92.2% | 83.2% | 98% | 73.9% | – | – | – | – | – | –
Cc1cc2c(F)c(Oc3ncnn4cc(OC[C@@H](C)O)c(C)c34)ccc2[nH]1 [Brivanib] (30 nM) | 91.9% | 92.6% | 91.7% | 109% | 85.4% | 65.1% | – | – | – | – | – | –
CC[C@@H]1C(=O)N(C)c2cnc(Nc3ccc(C(=O)N[C@H]4CC[C@H](N5CCN(CC6CC6)CC5)CC4)cc3OC)nc2N1C(C)C [Volasertib] (30 nM) | 40.5% | 25.4% | 45.9% | 58.8% | 31.5% | 49.7% | – | – | – | – | – | –
C[C@@H](CN1CC(=O)NC(=O)C1)N1CC(=O)NC(=O)C1 [Dexrazoxane] (1000 nM) | – | – | – | – | – | – | 97.4 | 102 | 86.9 | 83.6 | 97.8 | 107
NC1(c2ccc(-c3nc4ccn5c(=O)[nH]nc5c4cc3-c3ccccc3)cc2)CCC1 [MK-2206] (30 nM) | 101% | 97.4% | 96.2% | 103% | 99.4% | 69.6% | – | – | – | – | – | –
O=C(O)CC[C@H]1CC[C@@](c2cc(F)ccc2F)(S(=O)(=O)c2ccc(Cl)cc2)CC1 [MK-0752] (30 nM) | 106% | 115% | 100% | 117% | 103% | 93% | – | – | – | – | – | –
COc1cc2c(Oc3ccc(NC(=O)C4(C(=O)Nc5ccc(F)cc5)CC4)cc3F)ccnc2cc1OCCCN1CCOCC1 [Foretinib] (30 nM) | 93.3% | 95.1% | 89.2% | 84.3% | 94.1% | 59.1% | – | – | – | – | – | –
O=NN(CCCl)C(=O)NC1CCCCC1 [Lomustine] (300 nM) | 105% | 106% | 104% | 110% | 112% | 84.1% | – | – | – | – | – | –
CO[C@H](C(=O)[C@@H](O)[C@@H](C)O)[C@@H]1Cc2cc3cc(O[C@H]4C[C@@H](O[C@@H]5C[C@@H](O)[C@H](O)[C@@H](C)O5)[C@H](O)[C@@H](C)O4)c(C)c(O)c3c(O)c2C(=O)[C@H]1O[C@H]1C[C@@H](O[C@@H]2C[C@@H](O)[C@@H](O[C@@H]3C[C@](C)(O)[C@H](O)[C@@H](C)O3)[C@@H](C)O2)[C@H](O)[C@@H](C)O1 [Plicamycin] (300 nM) | 18.3% and 13.9% | 2.94% and 7.64% | 13% and 11.5% | 0.65% and -0.39% | 17.4% and 13.2% | 32.7% and 20.9% | – | – | – | – | – | –
N[C@@H](Cc1ccc(N(CCCl)CCCl)cc1)C(=O)O [Melphalan] (29.7 nM) | 104% | 98.7% | 88.3% | 102% | 110% | 81.1% | – | – | – | – | – | –
Cc1c(N)nc([C@H](CC(N)=O)NC[C@H](N)C(N)=O)nc1C(=O)N[C@H](C(=O)N[C@H](C)[C@@H](O)[C@H](C)C(=O)N[C@H](C(=O)NCCc1nc(-c2nc(C(=O)NCCC[S+](C)C)cs2)cs1)[C@@H](C)O)[C@@H](OC1OC(CO)C(O)C(O)C1OC1OC(CO)C(O)C(OC(N)=O)C1O)c1cnc[nH]1 (stereo partly drawn) [Bleomycin] (300 nM) | 90.9% | 81.5% | 92.5% | 107% | 102% | 72.9% | – | – | – | – | – | –
NC(=O)c1cccc2cn(-c3ccc([C@@H]4CCCNC4)cc3)nc12 [MK-4827] (300 nM) | 100% | 101% | 96.8% | 73.6% | 106% | 75.7% | – | – | – | – | – | –
CC(C)C(=O)Nc1ccc([N+](=O)[O-])c(C(F)(F)F)c1 [Flutamide] (300 nM) | 105% | 104% | 98.3% | 113% | 108% | 93.6% | – | – | – | – | – | –
NC(=O)NO [Hydroxyurea] (3000 nM) | 103% | 108% | 110% | 91.3% | 109% | 91.3% | – | – | – | – | – | –
COc1cc2c(N3CCN(C(=O)Nc4ccc(OC(C)C)cc4)CC3)ncnc2cc1OCCCN1CCCCC1 [Tandutinib] (30 nM) | 106% | 103% | 110% | 96.3% | 108% | 70.4% | – | – | – | – | – | –
C[C@@H](C(=O)O)c1ccc(-c2ccccc2)c(F)c1 [Tarenflurbil] (300 nM) | 117% | 93.6% | 101% | 89.8% | 104% | 64.5% | – | – | – | – | – | –
